Data on eight compounds can be found in patent US11110080B2, “Small molecule inhibitors of bacterial efflux pumps and methods of using same” (The Regents of the University of Colorado, a body Corporate, priority 2017, dated 2021).

The structures appear in SMILES notation. “Also recorded” adds a separate entry of the source. Like-named read-outs stand apart in the source and are kept apart here. Peptide text beside a SMILES is read from it. * marks the point of attachment. βNA = c1ccc2cc(N*)ccc2c1

For data set [1], the system named is Salmonella enterica serovar Typhimurium (S.Tm) within RAW 264.7 murine macrophages. Put plainly: SAFIRE: fluorescence microscopy assay of S.Tm load within macrophages. It is filed as cell-based. The conditions noted are these: for percentage of infected macrophages (validated hit): among the 309 hits; for hit status in SAFIRE screen: Maybridge HitFinder v11 library screened at 25 μM. The procedure:
A high-content, high-throughput fluorescence microscopy-based screening platform to assay S.Tm load within macrophages was developed (FIG. 1A). RAW 264.7 murine macrophages, a widely used cell line for bacterial infection studies, were infected with bacteria in a standard gentamicin protection assay. The Salmonella expressing GFP driven by the sifB promoter was incubated with the compound beginning at 2 hours post-infection. At 18 hours post-infection, cells were stained with MitoTracker Red CMXRos as a marker of macrophage vitality and processed for fluorescence microscopy. Stained with DAPI. A MATLAB®-based algorithm was developed to quantify infection (FIG. 1B) and compared to statistics to describe infection. Percentage of infected cells was determined by counting the proportion of macrophages within an image with at least 2 GFP+ pixels. Infection area was calculated by normalizing the number of GFP+ pixels within a cell to the cell's total area, then averaging across all cells in an image. To evaluate the approach, 2 μg/ml rifampicin in 96-well and 384-well plates was tested in three independent replicates. The Z′-factor was employed as a measure of assay reproducibility. Numbers close to 1 indicated high reproducibility. For percentage of infected macrophages, the Z′-factor was 0.59 and 0.48 in 96-well and 384-well plates, respectively, compared with 0.66 and 0.38 for infection area. The optimal Z′-factor threshold for high-throughput screening was 0.5; however, values above 0 were considered marginal but feasible. Therefore, the percentage of infected macrophages statistic was used.
The 14,400 compound library Maybridge HitFinder™ v11 was screened, which has been extensively screened against mammalian and microbial targets. The library was screened in duplicate at 25 μM in 384-well plates (FIG. 1C). Data were normalized using the B-score method to remove positional variation. The significance of B-scores was calculated using a modified t-test assuming an inverse gamma distribution of variances. Using a dual threshold of B-score greater than 1 and standard deviation from the mean and p-value less than 0.05, 908 compounds (6.3%) were identified that decreased or increased the percentage of infected macrophages. […] Compounds that altered infection by at least 25% in 96-well plates were considered validated hits.
For high-throughput screening and validation, 7×10^3 macrophages in 40 μL or 3×10^4 macrophages in 100 μL were seeded in 384- or 96-well black-walled, glass-bottomed plates (Brooks Automation). […] Forty-five minutes after bacterial addition, 20 or 50 μL gentamicin was added to a final concentration of 40 μg/mL. […] At 2 hours post-infection, 200 or 500 nL compound was added using a pin tool (CyBio) to yield a final concentration of 25 μM. Each assay plate included rifampicin and DMSO controls. In some experiments, media was removed and replaced with fresh medium containing 40 μg/mL gentamicin and the indicated concentrations of drugs. At 17.5 hours post-infection, PBS containing MitoTracker Red CMXRos (Life Technologies) was added to yield a final concentration of 300 nM (384-well) or 100 nM (96-well). Thirty minutes later, 16% paraformaldehyde was added to a final concentration of 1-2% and incubated at room temperature for 15 minutes. Wells were washed twice with PBS and stained for 20 minutes with 1 μM DAPI; wells were washed twice and stored in 90% glycerol in PBS until imaging.
High magnification images were acquired on an Olympus IX81 inverted widefield microscope. For screening imaging, three-color images were acquired at 10× or 20× on a Cellomics ArrayScan VTI (Thermo) and exported to DIB files. At least two images were taken per well for all experiments. […]

Data set [2] relates to S.Tm wild-type SL1344, MAR1 and S10801. Put plainly: microbe, parasite or virus in culture. To be noted: for MIC: Salmonella enterica. It is filed as cell-based, Salmonella enterica serovar Typhimurium. As to the method: Increased expression or function of efflux pumps often contributes to clinical multidrug resistance. Therefore, whether the EPMs re-sensitize two multidrug resistant strains of S.Tm to tetracycline was tested. Tetracycline is an antibiotic exported by AcrAB. The MAR1 strain is derived from wild-type SL1344 was selected by exposure to tetracycline, and has increased expression of the AcrAB efflux pump. S10801 is an MDR strain isolated from the mesenteric lymph node of a septic calf and is resistant to tetracycline, ampicillin, chloramphenicol, nalidixic acid, and triple sulfa. The basis of multi-drug resistance in this strain is unknown.
Overnight Salmonella cultures were washed 3 times in PBS and diluted to an OD of 0.01 in Mueller Hinton Broth in 96-well flat bottom plates. Compound was added using a pin tool (CyBio) or manually, yielding a final concentration of no more than 1% DMSO. Plates were grown at 37° C. shaking and OD600 was monitored using a BioTek Eon incubator shaker microplate absorbance reader. For experiments in defined media, bacteria were grown in M9 minimal media supplemented with 100 mM Tris pH 7.4, 0.35% glycerol, 0.002% histidine, 10 mM MgCl2, and 0.1% casamino acids. Where indicated, media was supplemented with 5 μg/ml polymyxin B or 0.2 mM H2O2. For experiments with LL-37, bacteria were grown in M9 minimal media supplemented with 0.4% dextrose, 0.004% histidine, 1 mM MgSO4, and 5 μg/ml LL-37. For checkerboard assays, MIC was defined as the concentration at which no growth was visually observed.

The subject of data set [3] is S.Tm. Put plainly: Swimming assay in soft agar (proton motive force). The class given is cell-based, Salmonella enterica serovar Typhimurium. To be noted: 400× the MIC (4 μM). The procedure: One way to inhibit efflux pumps is to disrupt the proton motive force, which is required for transport by some EPs. […] Bacteria were injected into the center of 0.25% agar plates, and 10 μl of compound was added to paper disks on the periphery. […] Also ampicillin and rifampicin were tested. We plotted the halo radius versus the concentration as the fold above the MIC (FIG. 9G). […] Next, it was determined whether PAβN inhibited swimming; PAβN is thought to disrupt membranes over long incubations. […] Finally, the EPMs at […] were tested (FIGS. 9D-F).
Saturated overnight cultures were diluted to an OD600 of 0.01 in LB and 1 μL was injected into the center of low agar (0.25%) LB plates. Ten microliters of the indicated compounds were added to sterilized Whatman paper disks (diameter 0.7 cm) placed equidistant from the plate center.

Data set [4] deals with S.Tm efflux pumps. Put plainly: Nile Red efflux assay. It is filed as cell-based, Salmonella enterica serovar Typhimurium. The source says:
Because Hoechst and other dyes commonly used to assess efflux bind cellular components, direct measurement of efflux is not possible using these methods; instead, the Hoechst assay measures dye accumulation, the net result of entry and efflux. Further, the slow off-rate of Hoechst entails that efflux pumps have no effect on dye already bound to DNA. As a result, compounds which increase Hoechst accumulation may actually enhance dye entry by altering porins or disrupting the membrane. To more specifically measure efflux pump activity, a second technique was employed using the dye Nile Red, a lipophilic membrane-partitioning dye which fluoresces in nonpolar environments. Because Nile Red is not known to bind cellular components, to directly observe efflux cells were preloaded with the dye in the absence of glucose to reduce efflux pump activity (FIG. 7A). Upon addition of glucose, bacteria rapidly effluxed Nile Red and fluorescence returned to baseline levels (FIG. 7B, top panel). […] The initial measured fluorescence was lower for DMSO-treated cells (upper dotted line) than for PAβN-treated cells due to glucose-independent efflux during sample preparation (FIG. 8A). Next, it was determined whether efflux pump activity is restored after removal of PAβN. Bacteria were incubated with compound for 15 minutes, pelleted and resuspended in buffer lacking compound, and then stimulated with glucose (FIGS. 7C, 7E).
Nile Red assays were adapted from an established protocol. Briefly, overnight Salmonella cultures were grown in Mueller-Hinton cation-adjusted broth (Sigma), washed, and resuspended at an OD600 of 2.0. Cells were incubated in 10 μM Nile Red for 3 hours at 37° C. with aeration, then moved to room temperature for 1 hour. After pelleting at 2000× g, dye-loaded cells were aliquoted and combined with compound at the indicated concentrations. Two hundred microliters was loaded into 96-well black walled plates (Greiner) and read using a Varioskan Flash Multimode Reader with 540 nm excitation and 625 nm emission filters. We observed that during loading into plates (˜20 minutes), bacteria were able to efflux Nile Red even in the absence of glucose (FIG. 8A). To activate efflux, glucose was added to a final concentration of 2 mM. In some experiments, bacteria were treated with drug for 15 minutes, pelleted at 16,000×g, resuspended in fresh buffer, and stimulated with 2 mM glucose. All wash and incubation steps were performed in PBS with 1 mM MgCl2; incubations were performed in glass tubes to reduce adhesion of Nile Red.

For data set [5], the system named is S.Tm efflux pumps. Put plainly: Hoechst 33342 accumulation assay. To be noted: wild-type S.Tm, 60 minutes. The class given is cell-based, Salmonella enterica serovar Typhimurium. As to the method: Efflux pumps (EPs) represent a key pathogen virulence strategy to protect against host antimicrobials as well as therapeutic antibiotics. […] To uncover putative EPMs within our collection of hits, 58 repurchased compounds were screened in a Hoechst accumulation assay. Bacteria were incubated with Hoechst 33342, a dye which fluoresces when bound to DNA.
Hoechst accumulation assays were performed essentially as described in the literature. Briefly, overnight Salmonella cultures were washed 3 times in PBS and diluted to an OD of 0.1 in PBS with 2.5 μM Hoechst 33342 in the presence of the indicated concentrations of compounds. Fluorescence was monitored on a Biotek Synergy 2 with a 360/40 nm excitation filter and 460/40 nm emission filter. The maximum Hoechst fluorescence over 60 minutes of incubation was normalized to the signal from the equivalent number of heat-killed bacteria, after subtraction of autofluroescent signal determined from compound incubated in the absence of bacteria. Curve fitting to determine EC50s was performed using GraphPad Prism.

Data set [6] can be described thus: Log D, solubility and predicted bioavailability. The class given is physicochemical. The conditions noted are these: high concentrations.

For the compound `Nc1c2ccccc2nc2ccccc12` [9-aminoacridine], the “percentage of infected macrophages (validated hit)” value in data set [1] (25 μM) is “decreased the percentage of infected macrophages”. For the same compound, the “hit status in SAFIRE screen” value in data set [1] is on record as 9-aminoacridine^1.

On to `O=C(NC1CCN(CCc2c[nH]c3ccccc23)CC1)c1ccccc1` [Indoramin], for which the “hit status in SAFIRE screen” value in data set [1] is reported as “Indoramin^1”.

In the case of `CN(C)CCCN1c2ccccc2CCc2ccc(Cl)cc21` [Clomipramine], the “hit status in SAFIRE screen” value in data set [1] is recorded as “Clomipramine^1”.

Turning to `CN(C)[C@@H]1C(O)=C(C(N)=O)C(=O)[C@@]2(O)C(O)=C3C(=O)c4c(O)cccc4[C@@](C)(O)[C@H]3C[C@@H]12` [tetracycline], the “increase in tetracycline MIC over wild type” value was 2 fold in data set [2] (MAR1) and 64 fold in data set [2] (S10801). In addition, the MIC in data set [2] (read-out: tetracycline MIC, MAR1) was 4 µg/mL; in data set [2] (read-out: tetracycline MIC, S10801) it was 128 µg/mL; in data set [2] (read-out: tetracycline MIC, wild-type S.Tm) it was 2 µg/mL.

Regarding `O=C(O)c1cn(C2CC2)c2cc(N3CCNCC3)c(F)cc2c1=O` [ciprofloxacin, reference compound], in data set [3], the “halo in swimming assay” value is “formed a halo similar in size to that of CCCP”.

For `Br.NC(N)=NCCCC(NC(=O)C(N)Cc1ccccc1)C(=O)Nc1ccc2ccccc2c1` (stereo not drawn) [PAβN, Phe-Arg β-naphthylamide, reference compound] (H-Phe-Arg-βNA; configuration not given here), the “decrease of the tetracycline MIC” value in data set [2] (250 μM (⅛ MIC), both strains MAR1 and S10801) worked out at 4 fold. The “glucose-activated efflux of Nile Red” value in data set [4] (500 μM) is “inhibited glucose-activated efflux”. The “Nile Red efflux, dose response” value in data set [4] (7 minutes post-glucose addition) is “dose dependent inhibition of Nile Red efflux; also recorded: reduced the rate and extent of Nile Red export”. Also, the “Nile Red efflux after washout of compound” value in data set [4] (15 minutes with compound, washed, then glucose) is given as “partially restored Nile Red export”. Further, the “Nile Red fluorescence in the absence of glucose (basal loss)” value in data set [4] (no glucose) is recorded as “inhibit basal loss of Nile Red”. Moreover, the results for the “Hoechst accumulation / fluorescence” value in data set [5] and in data set [5] (listed as PaβN) were “Hoechst accumulation increased” and “higher levels of fluorescence”, respectively. Further, the “solubility in cell culture media” value in data set [6] was “insolubility of high concentrations in cell culture media”.

Turning to `CC1(C)S[C@@H]2[C@H](N)C(=O)N2[C@H]1C(=O)O` [6-aminopenicillinate], in data set [1] (25 μM), the “activity in the screen” value is recorded as “modest activity”. For the same compound, the “average B-score from the screen” value in data set [1] (25 μM, duplicate, threshold −2.17) is reported as −2.29. The “hit status in SAFIRE screen” value in data set [1] is given as 6-aminopenicillinate^2.

For `O=C(N[C@H](CO)[C@H](O)c1ccc([N+](=O)[O-])cc1)C(Cl)Cl` [Chloramphenicol], in data set [1] (25 μM), the “percentage of infected macrophages (validated hit)” value is reported as “decreased the percentage of infected macrophages”. In data set [1], the “hit status in SAFIRE screen” value is on record as “Chloramphenicol^1”.
